Assays:
C57BL/6 mice = assay: Bleomycin-induced lung fibrosis model; format: in vivo; settings: Mus musculus, po, 504 h, 0.3 mg/kg orally once a day, three weeks after intratracheal bleomycin 6 mg/kg, vs solvent-administered group, read-out: Inhibitory ratio against the increment in the lung hydroxyproline amount
Excerpt: It is reported that administering bleomycin into the trachea induces fibrosis of the lung. According to the pathological observation, it is similar to clinical idiopathic pulmonary fibrosis in terms of the thickened fibrosis of the alveolar wall, an increase in inflammatory cells, an increment in the amount of hydroxyproline, etc., and is often used as a lung fibrosis experimental model (Biochem. Biophys. Res. Comm., 288, 747 (2001)). Bleomycin hydrochloride (Bleo: Nippon Kayaku Co., Ltd.) dissolved in physiological saline was injected with 500 μl of compressed air into the bronchi of C57BL/6 mice (6 week old, female) at 6 mg/kg and 25 μl/body. Three weeks after the intratracheal administration, the amount of hydroxyproline in the lung was measured. The materials to be tested, at 0.3 mg/kg per dose, were suspended in 0.5% sodium carboxymethyl cellulose, and administered orally once a day. The effect of the present invention is represented by a inhibitory ratio against the increment in the amount of lung hydroxyproline of the solvent-administered group, and is shown in Table 3 below.

[1] = test system: PAI-1 production in human bronchial epithelial cells (BEAS-2B); assay: PAI-1 production inhibitory activity using bronchial epithelial cells; format: cell-based; settings: BEAS-2B cells, TGF-β stimulation, 24 hrs, PAI-1 in supernatant by ELISA
Procedure: The effect of a compound against PAI-1 production activity was investigated using bronchial epithelial cells which reflect the PAI-1 concentration in the lung tissue involved in fibrosis (lung).
The effect against the amount of PAI-1 production was investigated using human bronchial epithelial cells (BEAS-2B). 0.1 ml of the BEAS-2B cells prepared to 2×10^5 cells/ml were added to each of the 96 wells of a collagen I coated plate, and precultured for 24 hrs. Then 0.1 ml of a medium containing […] of TGF-β was added, and after 24 hrs of incubation, the PAI-1 amount in the supernatant of the medium was measured by an ELISA kit. The materials to be tested were, after dissolved in dimethyl sulfoxide (the final concentration: 0.1% or lower), prepared to 0.2, 1, 5, and 25 μM with a phosphate buffer solution, and added to the preculture.

| Structure (SMILES) | inhibition in vivo at 0.3 mg/kg (C57BL/6 mice) [%] | IC50 [1] [nM] |
| --- | --- | --- |
| COc1ccc(C2=NNC(=O)C2)cc1OC1Cc2ccccc2C1 [Compound No. 1, 3-(3-(2-indanyloxy)-4-methoxyphenyl)-5-pyrazolone] | 77 |  |
| COc1ccc(C2=NN(C)C(=O)C2)cc1OC1Cc2ccccc2C1 [Compound No. 2, 3-(3-(2-indanyloxy)-4-methoxyphenyl)-1-methyl-5-pyrazolone] | 75 | 1420 |
| COc1ccc(C2=NNC(=O)C2)cc1OC1CCCC1 [Compound No. 3, 3-(3-(cyclopentyloxy)-4-methoxyphenyl)-5-pyrazolone] | 73 | 7590 |
| COc1ccc(C2=NN(C)C(=O)C2)cc1OC1CCCC1 [Compound No. 4, 3-(3-(cyclopentyloxy)-4-methoxyphenyl)-1-methyl-5-pyrazolone] | 73 |  |
| COc1ccc(C2=NN(c3ccccc3)C(=O)C2)cc1OC1Cc2ccccc2C1 [Compound No. 5, 3-(3-(2-indanyloxy)-4-methoxyphenyl)-1-phenyl-5-pyrazolone] | 75 |  |
| COc1ccc(C2=NN(c3ccccc3)C(=O)C2)cc1OC1CCCC1 [Compound No. 6, 3-(3-(cyclopentyloxy)-4-methoxyphenyl)-1-phenyl-5-pyrazolone] | 52 | 2560 |
| COc1ccc(C2=NN(c3ccc(C(=O)O)cc3)C(=O)C2)cc1OC1CCCC1 [Compound No. 7, 3-(3-(cyclopentyloxy)-4-methoxyphenyl)-1-(4-hydroxycarbonylphenyl)-5-pyrazolone] | 57 |  |
| O=C1CC(c2ccc(OC(F)F)c(OC3CCCC3)c2)=NN1 [Compound No. 8, 3-(3-(cyclopentyloxy)-4-(difluoromethoxy)phenyl)-5-pyrazolone] | 61 |  |
| COc1ccc(C2=NNC(=O)C2)cc1OCC1CC1 [Compound No. 9, 3-(3-(cyclopropylmethoxy)-4-methoxyphenyl)-5-pyrazolone] | 60 |  |
